Results taken from patent publication US10961187B2, “Substituted N-acetyl-L-cysteine derivatives and related compounds” (Promentis Pharmaceuticals, Inc., priority 2013, dated 2021).

Tests used:
[1] = biological target: T1, System xc− (Homo sapiens, UniProt Q9UPY5); experiment: 14C-cystine uptake in human glial cells from brain astrocytoma (1321N1); format: cell-based; details: 1321N1 cells
T1 construct: in vitro culture system of human glial cells from brain astrocytoma (1321N1); endogenous in cells; host or cells: 1321N1 human astrocytoma cells
T1 sequence (Q9UPY5 1-501): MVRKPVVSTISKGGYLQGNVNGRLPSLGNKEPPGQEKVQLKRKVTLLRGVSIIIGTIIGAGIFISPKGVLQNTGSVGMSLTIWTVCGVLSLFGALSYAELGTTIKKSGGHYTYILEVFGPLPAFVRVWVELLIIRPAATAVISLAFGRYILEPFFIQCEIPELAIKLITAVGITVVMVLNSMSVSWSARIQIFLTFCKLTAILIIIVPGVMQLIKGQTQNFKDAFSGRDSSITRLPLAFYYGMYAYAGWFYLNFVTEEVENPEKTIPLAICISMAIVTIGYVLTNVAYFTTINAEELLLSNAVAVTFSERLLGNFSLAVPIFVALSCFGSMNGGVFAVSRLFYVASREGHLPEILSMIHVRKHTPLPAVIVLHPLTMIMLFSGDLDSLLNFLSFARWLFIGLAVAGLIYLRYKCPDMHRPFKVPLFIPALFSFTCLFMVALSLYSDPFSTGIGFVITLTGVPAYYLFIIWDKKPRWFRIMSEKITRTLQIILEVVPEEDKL
T1 sequence (P08195 1-529 partner): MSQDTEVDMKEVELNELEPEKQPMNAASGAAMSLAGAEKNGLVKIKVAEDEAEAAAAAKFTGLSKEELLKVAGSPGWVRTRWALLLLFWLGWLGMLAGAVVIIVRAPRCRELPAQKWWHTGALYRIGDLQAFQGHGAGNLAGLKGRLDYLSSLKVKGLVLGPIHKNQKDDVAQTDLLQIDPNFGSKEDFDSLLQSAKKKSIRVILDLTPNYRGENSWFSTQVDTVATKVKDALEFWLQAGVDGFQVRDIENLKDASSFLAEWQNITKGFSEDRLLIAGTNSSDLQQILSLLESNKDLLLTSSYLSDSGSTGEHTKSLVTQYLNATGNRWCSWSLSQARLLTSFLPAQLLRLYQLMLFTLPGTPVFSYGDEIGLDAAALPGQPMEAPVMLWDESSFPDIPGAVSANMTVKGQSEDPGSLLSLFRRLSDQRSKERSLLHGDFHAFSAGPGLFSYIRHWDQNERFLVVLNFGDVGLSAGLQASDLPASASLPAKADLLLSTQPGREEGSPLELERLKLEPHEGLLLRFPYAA
Description: The goal of these experiments was to determine ^14C-cystine uptake.
The screening of compounds was performed using an in vitro culture system of human glial cells from brain astrocytoma (1321N1). Cells were plated on 24 well plates coated with poly-D-lysine and laminin and grown in a balanced salt solution supplemented with 5% heat inactivated horse serum, 5% fetal bovine serum, 2 mM glutamine and glucose (total 21 mM). Cultures were maintained in humidified 5% CO2 incubators at 37° C. for 3-4 days before experiments were performed, at this time the cultures has formed a single confluent layer. For experiments, cultures were washed 3 times into a Na-free HEPES and HCO3^− buffered balanced salt solution. After 1 hour, the test compounds are added. Following a three hour incubation, ^14C-cystine (0.025 mCi/mL) was then added for 20 minutes. Following the ^14C-cystine exposure, cultures were washed 3 times with ice cold HEPES buffered saline solution and dissolved in 250 μl sodium dodecyl sulfate (0.1%). An aliquot (200 μl) was removed and added to scintillation fluid for counting. Values were normalized to ^14C-cystine uptake in untreated controls on the same experimental plate.

[2] = biological target: T1, System xc−; experiment: 3H-glutamate release from human glial cells from brain astrocytoma (1321N1); format: cell-based; details: at 3 hours, 1321N1 cells
Description: This assay also uses the cell culture system of human glial cells from brain astrocytoma (1321N1) described above. Initially, cells are washed with HBBSS, and ^3H-glutamate is added (PerkinElmer: 1 mCi/mL stock solution is diluted (30 μL+500 HBBSS) and 10 μL of diluted radiolabel is added to each well). Following a 1 hour incubation to load the cells with the labeled glutamate, the cells are washed again with HBBSS, and the drug is added. At 30, 90, and 180 minutes, 50 μL of extracellular media is sampled from each well and is measured using a Beckman LS 6500 scintillation counter.

[3] = tested on: Rats; experiment: Prepulse inhibition experiment (MK-801-induced deficit); format: in vivo; details: MK-801 0.1 mg/kg SC, MK-801 + vehicle control about 16%
Description: Rats were placed on a platform in a sound attenuating chamber (10.875″×14″×19.5″; Hamilton Kinder, CA) that rested on a motion sensing plate. During all sessions, the background noise was held constant at 60 dB. A matching session was conducted to determine the magnitude of the average startle response for each rat. This session consisted of a five minute habituation period followed by 20 trials; 17 trials involved the presentation of a single auditory stimulus (pulse stimulus; 50 dB above the background noise) and three trials in which a pre-pulse stimulus (12 db above background) was presented 100 ms before the pulse auditory stimulus. Rats were then assigned into the various treatment groups so that the magnitude of the startle response was equivalent across all groups. Two days later, a testing session was conducted to assess sensorimotor gating. One hour prior to testing, rats received a prodrug (0-100 mg/kg, P.O.) and 55 minutes later acute MK-801 maleate (0.1 mg/kg, SC). The testing session consisted of a five minute habituation period, after which rats received 58 discrete trials; 26 trials during which the pulse stimulus (50 db above background) was presented alone, eight trials each in which the pulse stimulus was preceded by a prepulse stimulus (5, 10, or 15 db above background) and eight background trials with no pulse (No stimulus; background noise only). The first six pulse alone trials were not included in the average startle stimulus to achieve a relatively stable level of startle reactivity. All startle responses were normalized to vehicle control, and the percent of prepulse inhibition was determined as 100-(average prepulse startle response/average startle stimulus alone)*100.

[4] = tested on: Rats; experiment: Elevated-plus maze; format: in vivo; details: for time spent on the open arms: one hour prior to testing, five minute session
Description: Rats were tested in a standard elevated plus maze; testing occurred in a dimly illuminated room using only two lights mounted over the maze. Animals were allowed to habituate to the room for at least one hour prior to treatment. One hour prior to testing, rats received a compound of the present invention (0-30 mg/kg, P.O.). For testing, the rat was placed in the elevated plus maze for five minutes, alternating the starting position between facing an open arm and facing a closed arm. The session was recorded and an observer blind to treatment recorded the number of explorations, entries and time spent in the open arm. Explorations were defined as the rat placing two feet into an open arm without fully entering said arm. Entries were defined as the rat placing all four feet in an open arm. Time of entry in the open arm was recorded from the time the rat placed four feet in the open arm until two of the rats' feet entered the open square.

[5] = 10 mg/kg P.O. one hour prior to testing

CCOC(=O)[C@H](CSC(=O)C1CSC(=O)N1)NC(C)=O (stereo partly drawn) [Pro-4047, Ethyl (2R)-2-acetamido-3-(2-oxo-1,3-thiazolidine-4-carbonylsulfanyl) propanoate]
decrease in 14C-cystine uptake ([1]; over the concentrations tested, dose-dependent): 20-60%
increase in 3H-glutamate release ([2]; 100 μM): approximately 40%
% prepulse inhibition ([3]; 3 mg/kg P.O. one hour prior to testing): about 23%
increase of time on the open arms over control ([4]; 10 mg/kg PO): not a significant increase over control
time spent on the open arms ([4]; 10 mg/kg PO): around 22 seconds

CCOC(=O)[C@H](CSC(=O)c1ccc(C)cc1)NC(C)=O [Pro-4051, Ethyl (2R)-2-acetamido-3-(4-methylbenzoylsulfanyl)propanoate]
decrease in 14C-cystine uptake ([1]; 100 μM (most effective concentration), average of three experiments): approximately 28%
increase in 3H-glutamate release ([2]; 300 μM): approximately 100%
% prepulse inhibition [3, 5]: about 46%
increase of time on the open arms over control ([4]; 10 mg/kg PO): ~150%
time spent on the open arms ([4]; 10 mg/kg PO): around 48 seconds

CC(=O)N[C@@H](CSC(=O)c1ccc(C)cc1)C(=O)O [Pro-2023, (2R)-2-Acetylamino-3-(4-methyl-benzoylsulfanyl)-propionic acid]
inhibition at 1000 µM ([1]; 1000 μM, three hour incubation, read-out: decrease (inhibition) in 14C-cystine uptake): ~45%
increase in 3H-glutamate release ([2]; 300 μM): approximately 135%
% prepulse inhibition [3, 5]: about 30%
increase of time spent on the open arm ([4]; 10 or 30 mg/kg PO): about 100%
time spent on the open arms ([4]; 10 or 30 mg/kg PO): around 27 seconds
